{
  "source": "patent US11020419B2",
  "about": "“Use of polyinosinic-polycytidylic acid compositions in treatment of malignant effusion” (BIOSYNGEN PTE, LTD, priority 2016, dated 2021)",
  "key": {"H22 cells": {"system": "H22 cells", "description": "MPE usually refers to tumors originated from the chest metastasis to the pleural space, which leads to the formation of excessive fluid containing cancerous cells and it accounts for about 50% of all pleural effusions. […] Materials: mice liver cancer cell line line (purchased from CCTCC), BAL/c mice (female, 6-7 weeks old, 18-22 g, SPF, purchased from Wei Tong Li Hua, Beijing). BSG, 2 mg/ml, produced in house. Comparator CTX (cyclophosphamide, 0.2 g, from Baxter Oncology GmbH, batch no. 6D111A). Sodium Chloride for Injection (2.25 g, 250 ml, 0.9%, from Zhejiang Tianrui, pharmaceutica, batch no. 116102506).\nMethods: Thaw H22 cells, adjust density to 1×10^7 cells/ml, then inject 3 mice, 0.2 ml each. Collect excessive fluid from the injected mice on after 7 days and adjust cell density to 5×10^5/ml, inject another […] into the peritoneal muscle, 0.2 ml/mouse. Divided the mice randomly into 6 groups of 14 mice each three days post-inoculation, among the 14 mice of each group, 6 will be kept separately for survival study (see Table 4b). Treat mice continuously (grouping detail see Table 4a and 4b).\nObservations: 1) record mice behavior and skin/fur glossiness daily, measure body weights every two days; 2) 5 h post-treatment on D6, obtain blood from eye venous plexus until death and separate serum for white blood cell count (at least 20 ul); after obtaining blood, execute mice by cervical dislocation, measure pleural fluid volume and obtain thymus, spleen and lung, record organ weight; 3) record survival status of the rest of mice in Groups A2 to E2, calculate average increase in life span (ILS) using formula=[(ave. survival days of treatment groups/ave. survival days of control group)−1]×100%; 4) calculate rate of MPE suppression (%)=(1−ave. MPE volume of treatment groups/ave. MPE volume of control group)×100%."}, "S180 cell line": {"system": "S180 cell line", "test": "Concomitant use of BSG with chemotherapeutic drugs in S180 cell line induced MA (Example 4)", "assay_type": "in vivo, mice", "settings": "for Ascites Vol.: D12 (2 d post-treatment), 7 days treatment from 4 d post-inoculation", "description": "Materials: S180 cell line (purchased from CCTCC), female BAL/c mice (6-7 weeks old purchased from Centre of Laboratory Animal for Medical Science, Guangdong), BSG (2 mg/ml, produced in house), DDP (cisplatin, 5 mg/ml, from Jingasu Hansoh Pharma, batch no. 160603), CTX (cyclophosphamide), Sodium Chloride for Injection (2.25 g, 250 ml, 0.9%, from Zhejiang Tianrui, pharmaceutica, batch no. 116102506). Methods: 1. MA induction and propagation in mice: take logarithmic growth phase cells, adjust cell density to 5×10^6/ml, inject mice (i.p., 0.4 ml per animal). Collect MA fluid from mice 7-8 days post inoculation, adjust cell density to 2×10^7/ml and inject another 4 mice (i.p., 0.4 ml per animal). Collect MA fluid again from mice 6-7 days post inoculation, adjust cell density to 5×10^6/ml and inoculate 2×10^6 cells to 48 mice before grouping. 2. Grouping: randomly divide mice 4 d post-inoculation according to body weight into A, B, C, D, E, F groups with 8 mice per group. Treat mice with A. BSG (7.5 mg/kg), B. CTX (50 mg/kg), C. DDP (0.5 mg/kg), D. BSG (7.5 mg/kg)+CTX (50 mg/kg), E. BSG (7.5 mg/kg)+DDP (0.5 mg/kg), F. N.S control for 7 days (Grouping detail see Table 7).\n3. Observations: 1) record mice behavior and skin/fur glossiness daily, measure body weights and abdominal girth every two days; 2) 2 d post-treatment (D12), obtain blood from eye venous plexus and separate serum for while blood cell count (at least 20 ul). After obtaining blood, execute mice by cervical dislocation, measure pleural fluid volume and record color of fluid; 3) calculate rate of MPE suppression (%)=(1−ave. MPE volume of treatment groups/ave. MA volume of control group)×100%."}, "[1]": {"system": "mice liver cancer cell line H22", "test": "BSG in preventing and controlling MA in H22 mouse model (Example 2)", "assay_type": "in vivo", "settings": "for number of mice with nodules at the 7th day post inoculation: 9 mice each; for No. mice survive through Day 15: 9 mice/group; for ILS (average increase in life span): vs control group", "description": "Materials: mice liver cancer cell line H22; female mice 6-8 weeks old, 18-22 g. BSG, containing 2 mg/ml PIC, produced in-house; comparator, DDP purchased from Jiangzu Haoseng; negative control normal saline (N.S).\nMethods: Thaw H22 cell line, wash before inject intraperitoneally (i.p.) into 2 female BALB/c mice, and wait 10 days for peritoneal fluid accumulation. Draw accumulated fluid on D10, adjust the cell density at 1×10^7/ml. Inject another 54 mice via i.p. route with 0.2 ml of the fluid containing total of 2×10^6 cancerous cells. Pick 18 mice and divide into 2 groups at random 24 h post-inoculation. Each group of mice receives either A. BSG (subcutaneous, s.c. 200 ug/ul) or B. DDP (intraperitoneal, i.p. 20 ug/ul) at dosage set out below as a preventive measure. Treat mice daily for 14 days. The rest of mice were divided into 4 groups at random 5 d post-inoculation, namely C. BSG group (s.c.), D. BSG group (i.p.), E. DDP group (i.p.), and F. control group (s.c., N.S). Treat mice daily for 10 days (grouping detail see table below).\nMA volume of treatment groups/ave. MA volume of control group)×100%."}, "[2]": {"settings": "survival groups, 6 mice each, i.m., BSG 7.5 mg/kg, CTX 30 mg/kg, alone or combined"}, "[3]": {"settings": "BSG 7.5 mg/kg i.m., CTX 50 mg/kg i.m., DDP 0.5 mg/kg i.p., alone or combined"}, "[4]": {"settings": "D12, BSG 7.5 mg/kg i.m., CTX 50 mg/kg i.m., DDP 0.5 mg/kg i.p., alone or combined"}, "[5]": {"settings": "preventive, from 24 h post-inoculation, daily 14 days, BSG 200 ug s.c. (Group A), DDP 20 ug i.p. (Group B)"}, "[6]": {"settings": "treatment from 5 d post-inoculation, daily 10 days, i.p.: BSG 200 ug (Group D), DDP 20 ug (Group E)"}},
  "data": [
    {"compound": "O=P1(N(CCCl)CCCl)NCCCO1", "note": "(stereo not shown) [CTX, cyclophosphamide]", "values": [
      {"measurement": "body weight on D7", "setting": "H22 cells; BSG high dose 7.5 mg/kg, CTX 30 mg/kg, combined, i.m., FIG. 5", "result": "lower body weight"},
      {"measurement": "organ weight post treatment (thymus and spleen)", "setting": "H22 cells; CTX 30 mg/kg i.m., FIG. 4", "result": "lower average weight of organ"},
      {"measurement": "Ave. survival", "setting": "H22 cells; i.m., BSG 7.5 mg/kg, CTX 30 mg/kg, alone or combined", "result": 6.00, "unit": "days"},
      {"measurement": "ILS (average increase in life span)", "setting": "H22 cells; i.m., BSG 7.5 mg/kg, CTX 30 mg/kg, alone or combined, vs control, % only in formula b145", "result": 2.86, "unit": "%"},
      {"measurement": "No. of Mice D 3", "setting": "H22 cells; [2]", "result": 6},
      {"measurement": "No. of Mice D 4", "setting": "H22 cells; [2]", "result": 6},
      {"measurement": "No. of Mice D 5", "setting": "H22 cells; [2]", "result": 4},
      {"measurement": "No. of Mice D 6", "setting": "H22 cells; [2]", "result": 1},
      {"measurement": "No. of Mice D 7", "setting": "H22 cells; [2]", "result": 1},
      {"measurement": "No. of Mice D 8", "setting": "H22 cells; [2]", "result": 0},
      {"measurement": "No. of Mice D 9", "setting": "H22 cells; [2]", "result": 0},
      {"measurement": "Ascites Vol.", "setting": "S180 cell line; [3]", "result": 2.84, "unit": "mL"},
      {"measurement": "MA color recorded", "setting": "S180 cell line; [4]", "result": "3 mice with bloody ascites, 4 faintly red and 1 milky color"},
      {"measurement": "MA Suppression", "setting": "S180 cell line; D12, BSG 7.5 mg/kg i.m., CTX 50 mg/kg i.m., DDP 0.5 mg/kg i.p., alone or combined, vs N.S control", "result": 63.5, "unit": "%"}
    ]},
    {"compound": "N.N.[Cl][Pt][Cl]", "note": "[DDP, cisplatin]", "values": [
      {"measurement": "average cancerous cells in ascites", "setting": "[1]; cell count 2D post-treatment (D15), preventive: BSG 200 ug s.c. (Group A), DDP 20 ug i.p. (Group B)", "result": "3.17 10^6/ml"},
      {"measurement": "ascites volume (on average)", "setting": "[1]; i.p. administration, BSG 200 ug, DDP 20 ug daily, D15", "result": 1.7, "unit": "mL"},
      {"measurement": "number of mice with nodules at the 7th day post inoculation", "setting": "[1]; preventive groups, BSG 200 ug s.c. (Group A, small size nodule), DDP 20 ug i.p. (Group B, medium size nodules)", "result": 6},
      {"measurement": "No. mice survive through Day 15", "setting": "[1]; [5]", "result": 6},
      {"measurement": "Ave. survival", "setting": "[1]; [5]", "result": 14.4, "unit": "days"},
      {"measurement": "ILS (average increase in life span)", "setting": "[1]; [5]", "result": 72, "unit": "%"},
      {"measurement": "number of mice with nodules at the 7th day post inoculation", "setting": "[1]; treatment from 5 d, i.p.: BSG 200 ug (Group D), DDP 20 ug (Group E), medium size nodules", "result": 6},
      {"measurement": "No. mice survive through Day 15", "setting": "[1]; [6]", "result": 2},
      {"measurement": "Ave. survival", "setting": "[1]; [6]", "result": 12.8, "unit": "days"},
      {"measurement": "ILS (average increase in life span)", "setting": "[1]; [6]", "result": 53, "unit": "%"},
      {"measurement": "number of mice not alive until D12", "setting": "S180 cell line; 8 mice per group, DDP 0.5 mg/kg i.p. (Group C), BSG 7.5 mg/kg + CTX 50 mg/kg (Group D)", "result": 4},
      {"measurement": "Ascites Vol.", "setting": "S180 cell line; [3]", "result": 5.63, "unit": "mL"},
      {"measurement": "MA color recorded", "setting": "S180 cell line; [4]", "result": "bloody ascites with one mouse having milky color"},
      {"measurement": "tumor burden and MA volume (body weight on D12)", "setting": "S180 cell line; survived mice, D12, FIG. 7", "result": "largest tumor burden and MA volume"}
    ]}
  ]
}
